PubChem BioAssay (NCI)
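Compound exposure: 48 hours, 5 concentrations, 96-well plates. Abbreviation: GI50, concentration required for 50% inhibition of growth. TGI is the concentration that stops growth completely.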

What was measured:
Test in all cases: inhibition of tumour cell growth, NCI panel, 48 h
[1] = test system: LOX IMVI melanoma
[2] = test system: CCRF-CEM leukemia
[3] = test system: OVCAR-5 ovarian
[4] = test system: RXF 393 renal
[5] = test system: K-562 leukemia
[6] = test system: IGROV1 ovarian
[7] = test system: SK-MEL-2 melanoma
[8] = test system: OVCAR-3 ovarian
[9] = test system: KM12 colon
[10] = test system: COLO 205 colon

Compound	TGI [1] [µM]	TGI [2] [µM]	TGI [3] [µM]	TGI [4] [µM]	TGI [5] [µM]	TGI [6] [µM]	TGI [7] [µM]	TGI [8] [µM]	TGI [9] [µM]	TGI [10] [µM]	GI50 [1] [µM]	GI50 [2] [µM]	GI50 [3] [µM]	GI50 [4] [µM]	GI50 [5] [µM]	GI50 [6] [µM]	GI50 [7] [µM]	GI50 [8] [µM]	GI50 [9] [µM]	GI50 [10] [µM]
CC(=O)NC1=C[C@@H]([C@H]2COC(C)(C)O2)OC1=O	> 100	> 100	> 100	> 100	> 100	> 100	> 100	> 100	> 100	> 100										
COC(=O)N1CC2C3C4CC(C(c5ccccc5)=C4c4ccccc4)C3C21 (configuration not stated)	25.6	43.4	91.2	39.9	> 100	45.6	50.5	36.7	34.2	45.2										
O=C(Nc1ccc(-n2ccc3c(NC(=O)c4ccccc4)ncnc32)cc1)Nc1cccc(Cl)c1Cl	2.04	3.21	2.84	1.79	6.04	3.39	3.88	2.75	6.57	7.97	0.763	0.531	1.04	0.796	0.985	1.06	1.33	1.19	1.15	1.75
C=C(OC1C(C)=C2C(C1OC(=O)CCCCCCC)C(C)(OC(C)=O)CC(OC(=O)CCC)C1(O)C2OC(=O)C1(C)O)/C(C)=C/C (configuration not stated)		6.24	8.64	1.53	5.38	11	0.0642		3.63	0.101	< 0.0001	< 0.0001	< 0.0001		< 0.0001		< 0.0001	< 0.0001	< 0.0001	< 0.0001
CCOC(=O)CC1(c2cccc3ccccc23)OC(=O)c2ccccc21 (configuration not stated)	> 100	> 100	> 100	70.1	> 100	> 100	> 100	> 100	> 100	98.5										
CC/C=C(\C(=C/CC)[N+](=O)[O-])[N+](=O)[O-]	32.2	42.4	27.2	31	71.3	35.9	> 100	30.5		37										
Nc1nc(N)c2cc(NCc3ccc(Cl)c(Cl)c3)ccc2n1			2.19	2.34			3.37	2.24	2.59	2.6			1.02	1.13			1.82	1.03	1.29	1.32
O=C(O)/C(Cc1ccc([N+](=O)[O-])cc1)=N\O	> 100	> 100	> 100	> 100	> 100	> 100	> 100	> 100	> 100	> 100										
